The values that follow are results of earlier work, collected in patent US20040191214A1, “Nucleoside vaccine adjuvants” (priority 2001, published 2004).

SMILES strings stand for the structures.

The data set has as its system lymphocyte. The following applies: stated as known; see U.S. Pat. Nos. 6,130,326, 6,063,772, 5,767,097 to Tam.
For the compound `N=C(N)c1ncn([C@@H]2O[C@H](CO)[C@@H](O)[C@H]2O)n1` [Viramidine, 1-beta-D-ribofuranosyl-1,2,4-triazole-3-carboxamidine], the “stimulation of Type 1 or Type 2 (cytokine) response” value (shortened to “stimulation”) was “stimulate a Type 1 response”.
`NC(=O)c1ncn([C@H]2O[C@@H](CO)[C@H](O)[C@@H]2O)n1` [Levovirin, 1-beta-L-ribofuranosyl-1,2,4-triazole-3-carboxamide]: the “stimulation” value is “stimulate a Type 1 response”.
For `NC(=O)c1ncn([C@@H]2O[C@H](CO)[C@@H](O)[C@H]2O)n1` [Ribavirin, 1-beta-D-ribofuranosyl-1,2,4-triazole-3-carboxamide], the “stimulation” value is listed as “stimulate a Type 1 response”.
Turning to `Cl.N=C(N)c1cn([C@@H]2O[C@H](CO)[C@@H](O)[C@H]2O)c2nc[nH]c(=O)c12` [7-(β-D-ribofuranosyl)pyrrolo[2,3-d]4-pyrimidone-5-carboxamidine*HCl], the “stimulation” value is listed as “stimulate a Type 2 response”.
